Earlier results in patent US20060127478A1, “Oral dosage formulation” (priority 2003, published 2006).
Where two headings read alike, the source gives them in different places.

Legend:
[1] = Taha et al., NEJM 1996
gastric secretion = details: following oral administration
[2] = in vivo

SMILES | nocturnal intra-gastric pH, mean value (nocturnal dose of 20 mg) | nocturnal intra-gastric pH, mean value (nocturnal dose of 40 mg) | basal daytime inter-digestive pH (three and eight hours following administration after breakfast of 20 or 40 mg) | frequency of gastric and duodenal ulcers associated with non-selective NSAIDs (diclofenac, ibuprofen, naproxen, ketoprofen) [1] | time at which basal, nocturnal, food and pentagastrin stimulated gastric secretion is inhibited (gastric secretion) | time to maximum effect on gastric secretion (gastric secretion; maximum effect dose dependent) | incidence of adverse effects (abdominal pain, diarrhea, nausea, flatulence) [2]
NC(N)=Nc1nc(CSCCC(N)=NS(N)(=O)=O)cs1 [Famotidine] | 5.0 | 6.4 | about 5 | reduce the frequency | one | one to three | –
CCCCC(C)(O)C/C=C/[C@H]1[C@H](O)CC(=O)[C@@H]1CCCCCCC(=O)OC (mixture of isomers) [Misoprostol] | – | – | – | – | – | – | high incidence
